IC50 data for 35 compounds are collected here from patent publication US20190134005A1 (BioMarin Pharmaceutical Inc., priority 2016, published 2019).

Like-named read-outs stand apart in the source and are kept apart here.

The test has as its target T1, human CGT (Homo sapiens, UniProt Q16880).
T1 sequence (Q16880 21-541): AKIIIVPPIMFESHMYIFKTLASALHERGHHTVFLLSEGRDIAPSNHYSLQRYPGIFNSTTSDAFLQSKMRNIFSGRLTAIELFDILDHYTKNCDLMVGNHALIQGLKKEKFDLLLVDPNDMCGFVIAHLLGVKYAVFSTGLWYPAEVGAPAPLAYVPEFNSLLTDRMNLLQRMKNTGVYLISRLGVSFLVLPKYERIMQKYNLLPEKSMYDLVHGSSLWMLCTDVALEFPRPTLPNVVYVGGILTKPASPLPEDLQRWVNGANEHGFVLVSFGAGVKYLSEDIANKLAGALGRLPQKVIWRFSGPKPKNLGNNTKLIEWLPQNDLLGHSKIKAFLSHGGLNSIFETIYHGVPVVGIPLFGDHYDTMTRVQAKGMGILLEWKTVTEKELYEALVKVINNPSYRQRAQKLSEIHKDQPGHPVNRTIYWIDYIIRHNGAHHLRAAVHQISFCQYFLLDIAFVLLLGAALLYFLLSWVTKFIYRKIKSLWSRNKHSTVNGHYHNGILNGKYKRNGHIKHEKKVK
Kind of test: Assay 1: CGT Enzymatic Assay (RapidFire/MS/MS, 0.01% Tween 80). In kind it is biochemical. The note with it: Table 1, Compounds of Formula (I) and Formula (II), CGT enzymatic assay, read-out: IC50.

Where [1] appears, read: C6-NBD-dihydro-galactosylceramide readout.

The IC50 is the midpoint of a concentration-inhibition curve. Take `CC#Cc1cccc(C2(O)[C@H](C)N(c3ccc(Cl)cc3)C(=O)N2c2ccc(Cl)cc2)c1` (stereo partly drawn) [Compound 103-1, (5S)-1,3-bis(4-chlorophenyl)-4-hydroxy-5-methyl-4-(3-(prop-1-yn-1-yl)phenyl)imidazolidin-2-one]: the IC50 is less than 1 µM.
Still for that read-out and setting: in the case of `CCC[C@H]1N(c2ccc(Br)cc2)C(=O)N(c2ccc(Br)cc2)C1(O)c1cccc(Cl)c1` (stereo partly drawn) [Compound 119-2, (5R)-1,3-bis(4-bromophenyl)-4-(3-chlorophenyl)-4-hydroxy-5-propylimidazolidin-2-one] it was less than 1 µM; in that of `O=C1N(c2ccc(Br)cc2)CC(O)(c2cc3ccccc3s2)N1c1ccc(Br)cc1` (centres unmarked) [Example 8, 4-(benzo[b]thiophen-2-yl)-1,3-bis(4-bromophenyl)-4-hydroxyimidazolidin-2-one], 50 to 100 µM.
The same measure, in the same setting: in the case of `C[C@]1(C(F)(F)F)N(c2ccc(Cl)cc2)C(=O)N(c2ccc(Cl)cc2)C1(O)c1cccc(OC(F)(F)F)c1` (single isomer, unassigned) [Example 159-1] it was 1 to 10 µM; in that of `O=C1N(c2ccc(Cl)cc2)C2(CCCC2)C(O)(c2cccc(OC(F)(F)F)c2)N1c1ccc(Cl)cc1` (centres unmarked) [Compound 146, 1,3-bis(4-chlorophenyl)-4-hydroxy-4-(3-(trifluoromethoxy)phenyl)-1,3-diazaspiro[4.4]nonan-2-one], less than 1 µM.
As to `Cc1ccc(N2C(=O)N(c3ccc(C)cc3)C(O)(c3cccc(C#N)c3)[C@H]2C)cc1` (single isomer, unassigned) [Compound 105-2], the IC50 was less than 1 µM.
Still for that read-out and setting: in the case of `O=C1N(c2ccc(Cl)cc2)C(c2cccs2)C(O)(c2ccccc2)N1c1ccc(Cl)cc1` (centres unmarked) [Compound 109, 1,3-bis(4-chlorophenyl)-4-hydroxy-4-phenyl-5-(thiophen-2-yl)imidazolidin-2-one] it was 1 to 10 µM; in that of `COc1ccc(C2(O)C(=O)N(c3ccc(Br)cc3)C(=O)N2c2ccc(Br)cc2)nc1` (centres unmarked) [Example 208, 1,3-bis(4-bromophenyl)-5-hydroxy-5-(5-methoxypyridin-2-yl)imidazolidine-2,4-dione], 50 to 100 µM.
For `Cc1ccc(N2C(=O)N(c3ccc(C#N)cc3)C(O)(c3cccc(C#N)c3)C2(C)C)cc1` (centres unmarked) [Example 313, 3-(3-(4-cyanophenyl)-4-hydroxy-5,5-dimethyl-2-oxo-1-(p-tolyl)imidazolidin-4-yl)benzonitrile], under setting [1], the IC50 is less than 1 µM.
For `Cc1ccc(N2C(=O)N(c3ccc(Cl)cc3)C(O)(c3cccc(OC(F)(F)F)c3)C2(C)C)cc1` (centres unmarked) [Example 318, 1-(4-chlorophenyl)-5-hydroxy-4,4-dimethyl-3-(p-tolyl)-5-(3-(trifluoromethoxy)phenyl)imidazolidin-2-one], the IC50 under setting [1] is less than 1 µM.
Turning to `O=C1N(c2ccc(Br)cc2)[C@@H](C2CC2)C(O)(c2ccccc2)N1c1ccc(Br)cc1` (stereo partly drawn) [Compound 115-1, (5S)-1,3-bis(4-bromophenyl)-5-cyclopropyl-4-hydroxy-4-phenylimidazolidin-2-one], the IC50 is less than 1 µM.
The same measure, in the same setting: in the case of `OC1(c2ccccc2)CN(c2ccc(Br)cc2)C(=S)N1c1ccc(Br)cc1` (centres unmarked) [Example 26, 1,3-bis(4-bromophenyl)-4-hydroxy-4-phenylimidazolidine-2-thione] it was 50 to 100 µM.
With `O=C1N(c2ccc(Cl)cc2)C2(COC2)C(O)(c2cccc(OC(F)F)c2)N1c1ccc(Cl)cc1` (centres unmarked) [Compound 272, 5,7-bis(4-chlorophenyl)-8-(3-(difluoromethoxy)phenyl)-8-hydroxy-2-oxa-5,7-diazaspiro[3.4]octan-6-one], under setting [1], the IC50 is less than 1 µM.
As for `N#Cc1cccc(C2(O)[C@H](C3CC3)N(c3ccc(Cl)cc3)C(=O)N2c2ccc(Cl)cc2)c1` (stereo partly drawn) [Example 187-1, 3-((5S)-1,3-bis(4-chlorophenyl)-5-cyclopropyl-4-hydroxy-2-oxoimidazolidin-4-yl)benzonitrile], the IC50 is less than 1 µM.
On the same count and under the same terms, in the case of `CCCc1c(CCC)n(-c2ccc(Br)cc2)c(=O)n1-c1ccc(Br)cc1` [Example 22, 1,3-bis(4-bromophenyl)-4,5-dipropyl-1,3-dihydro-2H-imidazol-2-one] it was more than 50 µM; in that of `O=C1N(c2ccc(Br)cc2)[C@H](c2ccccc2)C(O)(c2ccccc2)N1c1ccc(Br)cc1` (stereo partly drawn) [Compound 86-2, (5R)-1,3-bis(4-bromophenyl)-4-hydroxy-4,5-diphenylimidazolidin-2-one], 1 to 10 µM.
`COc1ccc(N2C(=O)N(c3ccc(OC)cc3)C(O)(c3cccc(C#N)c3)C2C(C)C)cc1` (centres unmarked) [Example 330, 3-(4-hydroxy-5-isopropyl-1,3-bis(4-methoxyphenyl)-2-oxoimidazolidin-4-yl)benzonitrile]: under setting [1], the IC50 is less than 1 µM.
For the compound `O=C1N(c2ccc(Br)cc2)CC(O)(c2ccccn2)N1c1ccc(Br)cc1` (centres unmarked) [Example 9, 1,3-bis(4-bromophenyl)-4-hydroxy-4-(pyridin-2-yl)imidazolidin-2-one], the IC50 was more than 50 µM.
On to `CC1(C)N(c2ccc(Cl)cc2)C(=O)N(c2ccc(Cl)cc2)C1(O)c1cccc(C2COC2)c1` (centres unmarked) [Example 324-2, 1,3-bis(4-chlorophenyl)-4-hydroxy-5,5-dimethyl-4-(3-(oxetan-3-yl)phenyl)imidazolidin-2-one], for which the IC50 under setting [1] lay in the range of 1 to 10 µM.
With `CC[C@H]1N(c2ccc(Br)cc2)C(=O)N(c2ccc(Br)cc2)C1(O)c1ccccc1` (some centres unmarked) [Example 25-2], the IC50 was less than 1 µM.
Same read-out and setting: to `C[C@@H]1N(c2ccc(C#N)cc2)C(=O)N(c2ccc(C#N)cc2)C1(O)c1cccc(OC(F)(F)F)c1` (stereo partly drawn) [Example 180-1, 4,4′-((5S)-4-hydroxy-5-methyl-2-oxo-4-(3-(trifluoromethoxy)phenyl)imidazolidine-1,3-diyl)dibenzonitrile] belongs less than 1 µM; to `C[C@@]1(c2cccc(C(F)(F)F)c2)C(O)N(c2ccc(Br)cc2)C(=O)N1c1ccc(Br)cc1` (stereo partly drawn) [Example 219-2, (4R)-1,3-bis(4-bromophenyl)-5-hydroxy-4-methyl-4-(3-(trifluoromethyl)phenyl)imidazolidin-2-one], less than 1 µM; to `N#Cc1ccc(N2CC(O)(c3ccccc3)N(c3ccc(C#N)cc3)C2=O)cc1` (centres unmarked) [Compound 111, 4,4′-(4-hydroxy-2-oxo-4-phenylimidazolidine-1,3-diyl)dibenzonitrile], more than 50 µM.
Turning to `N#Cc1ccc(N2C(=O)N(c3ccc(Cl)cc3)C3(CCC3)C2(O)c2cccc(C#N)c2)cc1` (centres unmarked) [Compound 289, 3-(5-(4-chlorophenyl)-7-(4-cyanophenyl)-8-hydroxy-6-oxo-5,7-diazaspiro[3.4]octan-8-yl)benzonitrile], the IC50 under setting [1] is less than 1 µM.
For `O=C1N(c2ccc(Br)cc2)CC(O)(c2cccc(OC(F)(F)F)c2)N1c1ccc(Br)cc1` (centres unmarked) [Compound 58, 1,3-bis(4-bromophenyl)-4-hydroxy-4-(3-(trifluoromethoxy)phenyl)imidazolidin-2-one], the IC50 was less than 1 µM.
Turning to `CC1(C)N(c2ccc(Cl)cc2)C(=O)N(c2ccc(Cl)cc2)C1(O)c1cccc(C2CCO2)c1` (centres unmarked) [Example 324-1, 1,3-bis(4-chlorophenyl)-4-hydroxy-5,5-dimethyl-4-(3-(oxetan-2-yl)phenyl)imidazolidin-2-one], under setting [1], the IC50 was less than 1 µM.
For `CC[C@]1(C)N(c2ccc(Cl)cc2)C(=O)N(c2ccc(Cl)cc2)C1(O)c1cccc(OC(F)(F)F)c1` (single isomer, unassigned) [Example 163-2], the IC50 is less than 1 µM.
On the same count and under the same terms, in the case of `CCC1(O)[C@@H](c2ccccc2)N(c2ccc(Br)cc2)C(=O)N1c1ccc(Br)cc1` (some centres unmarked) [Example 45-2] it was 10 to 50 µM.
Still for that read-out and setting: in the case of `CCCCOc1ccc(C2(O)C(=O)N(c3ccc(Br)cc3)C(=O)N2c2ccc(Br)cc2)cc1` (centres unmarked) [Example 182, 1,3-bis(4-bromophenyl)-5-(4-butoxyphenyl)-5-hydroxyimidazolidine-2,4-dione] it was more than 50 µM; in that of `CC[C@]1(C)C(c2cccc(OC(F)(F)F)c2)N(c2ccc(C#N)cc2)C(=O)N1c1ccc(C#N)cc1` (stereo partly drawn) [Example 51-1, 4,4′-((4R)-4-ethyl-4-methyl-2-oxo-5-(3-(trifluoromethoxy)phenyl)imidazolidine-1,3-diyl)dibenzonitrile], 1 to 10 µM.
Take `COc1ccc(N2C(=O)N(c3ccc(OC)cc3)C(O)(c3ccccc3)C2=O)cc1` (centres unmarked) [Example 160, 5-hydroxy-1,3-bis(4-methoxyphenyl)-5-phenylimidazolidine-2,4-dione]: the IC50 is more than 50 µM.
Same read-out and setting: to `O=C1N(c2ccc(Br)cc2)[C@@H](c2ccccc2)C(O)(c2ccccc2)N1c1ccc(Br)cc1` (stereo partly drawn) [Compound 86-1, (5S)-1,3-bis(4-bromophenyl)-4-hydroxy-4,5-diphenylimidazolidin-2-one] belongs 10 to 50 µM.
Take `O=C1N(c2ccc(Cl)cc2)C2(COC2)C(O)(c2cccc(OC(F)(F)F)c2)N1c1ccc(Cl)cc1` (centres unmarked) [Compound 150, 5,7-bis(4-chlorophenyl)-8-hydroxy-8-(3-(trifluoromethoxy)phenyl)-2-oxa-5,7-diazaspiro[3.4]octan-6-one]: the IC50 was less than 1 µM.
Still for that read-out and setting: in the case of `CCC[C@H]1N(c2ccc(Cl)cc2)C(=O)N(c2ccc(Cl)cc2)C1(O)c1cccc(C#N)c1` (stereo partly drawn) [Compound 101-2, 3-((5R)-1,3-bis(4-chlorophenyl)-4-hydroxy-2-oxo-5-propylimidazolidin-4-yl)benzonitrile] it was less than 1 µM; in that of `C[C@H]1N(c2ccccc2)C(=O)N(c2ccccc2)C1(O)c1cccc(OC(F)(F)F)c1` (stereo partly drawn) [Example 230-2, (5R)-4-hydroxy-5-methyl-1,3-diphenyl-4-(3-(trifluoromethoxy)phenyl)imidazolidin-2-one], 1 to 10 µM.
